Laboratory results as given in patent publication US8999964B2, “TGR5 modulators and methods of use thereof” (Intercept Pharmaceuticals, Inc., priority 2008, dated 2015).
Counter-ions that a name gives are not always drawn.

Assays:
CAR = target: T1, CAR (Homo sapiens, UniProt Q14994); test: CAR coactivator recruitment (Lanthascreen); assay type: biochemical; conditions: Table 6; coactivator recruitment (Lanthascreen)
T1 construct: purchased Invitrogen
T1 sequence (Q14994 109-352 limits assumed): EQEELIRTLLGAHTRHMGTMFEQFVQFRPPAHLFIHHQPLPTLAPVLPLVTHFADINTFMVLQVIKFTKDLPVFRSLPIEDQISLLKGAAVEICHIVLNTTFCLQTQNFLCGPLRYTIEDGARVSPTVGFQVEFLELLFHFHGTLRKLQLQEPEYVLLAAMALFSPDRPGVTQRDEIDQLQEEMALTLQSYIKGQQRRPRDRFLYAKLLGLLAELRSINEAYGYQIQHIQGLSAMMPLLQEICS

VDR = target: T2, VDR (Homo sapiens, UniProt P11473); test: VDR activation, NR selectivity assay; assay type: biochemical; conditions: Table 6
T2 construct: purchased Invitrogen
T2 sequence (P11473 127-423 limits assumed): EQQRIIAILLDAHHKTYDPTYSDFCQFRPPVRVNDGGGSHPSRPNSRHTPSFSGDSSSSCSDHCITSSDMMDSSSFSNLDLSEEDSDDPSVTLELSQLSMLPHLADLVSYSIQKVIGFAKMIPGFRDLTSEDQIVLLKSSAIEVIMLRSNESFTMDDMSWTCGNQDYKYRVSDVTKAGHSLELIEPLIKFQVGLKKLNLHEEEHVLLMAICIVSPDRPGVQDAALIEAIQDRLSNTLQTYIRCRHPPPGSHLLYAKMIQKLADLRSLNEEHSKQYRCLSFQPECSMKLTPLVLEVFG

[1] = Critical micellar concentration by surface tension measurements; assay type: physicochemical
Protocol: The critical micellar concentration (CMC) was determined by surface tension (ST) measurements using a maximum bubble-pressure method which give surface tension values slightly affected by potential impurities […] static methods. […] The surface tension values were plotted against the logarithm of the bile salt concentration; the regression lines corresponding to the two parts of the curve (monomeric and micellar phases) were calculated using the method of least squares, and the intersection of the lines was taken as the CMC value. From the ST vs concentration curves the value of the surface tension at the CMC (equilibrium between monomers and multimers species) was also calculated giving information about the detergency power which is related to the size of the micelles with associate surface tension lowering capacity. The CMC was evaluated by surface tension measurements in non equilibrium conditions i.e. in conditions that impurities slightly affect the surface tension results (FIG. 6). […] The presence of a hydroxyl group in the C-16 beta position reduces the hydrophobic area responsible for back to back interaction, which is to form micelles and therefore, the micelles are small and poorly detergent. This property confers to the molecule a low toxicity when accumulated in a given biological fluid or organ.

PPARδ = target: T3, PPARδ (Homo sapiens, UniProt Q03181); test: PPARδ activation, NR selectivity assay; conditions: Table 6
T3 sequence (Q03181 211-439 limits assumed): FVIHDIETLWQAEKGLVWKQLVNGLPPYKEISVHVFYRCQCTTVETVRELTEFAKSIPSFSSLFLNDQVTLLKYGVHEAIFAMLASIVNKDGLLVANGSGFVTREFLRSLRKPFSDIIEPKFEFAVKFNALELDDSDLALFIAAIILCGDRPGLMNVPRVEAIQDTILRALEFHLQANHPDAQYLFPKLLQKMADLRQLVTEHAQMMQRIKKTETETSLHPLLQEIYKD

[2] = 1-Octanol/water partition coefficient (shake-flask); conditions: bile acids as ionized species, pH 8
Protocol: The octanol/water partition coefficient was measured for molecules in their ionized form and therefore the carboxy analogues were studied at a relatively high pH (8 to 9) to ensure full ionization of the carboxyl group. The 1-Octanol/water partition coefficient (log P) was evaluated using a conventional shake-flask procedure. […] The aqueous buffer was previously pre-saturated with 1-octanol, 5 ml of 1-octanol pre-saturated with water was then added and the samples were left to equilibrate for 2 weeks under continuous stirring at room temperature. After centrifugation the two phases were carefully separated. […] The flow rate was 150 μal/min and the column was maintained at 45° C.

[3] = Bile fistula rat, duodenal (id) infusion: bile flow, biliary secretion, metabolism; conditions: for Intestinal absorption: biliary secretion id versus iv; for Conc. in bile: rat bile; for Secretion (biliary): rat
hTGR5 [4] = target: T4, hTGR5 (Homo sapiens, UniProt Q8TDU6); test: cell-based; set-up: Human intestinal cell lines (NCI-H716) were plated in 96-well plates; endogenous in cells; conditions: Table 1; CRE-Luc reporter, HEK293T; read-out: Transactivation Assay hTGR5 EC50
T4 sequence (Q8TDU6 1-330): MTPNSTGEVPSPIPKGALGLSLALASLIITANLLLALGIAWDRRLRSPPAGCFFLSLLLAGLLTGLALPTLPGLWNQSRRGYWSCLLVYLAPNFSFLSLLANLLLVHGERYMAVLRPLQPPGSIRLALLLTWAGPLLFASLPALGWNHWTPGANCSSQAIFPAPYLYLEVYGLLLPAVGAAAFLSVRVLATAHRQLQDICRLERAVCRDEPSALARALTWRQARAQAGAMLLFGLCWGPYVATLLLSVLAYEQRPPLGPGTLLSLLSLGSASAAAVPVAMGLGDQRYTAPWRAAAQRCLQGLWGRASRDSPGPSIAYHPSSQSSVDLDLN
Protocol: HEPG2 and HEK293T cells were cultured in E-MEM and DMEM respectively, either supplemented with 1% penicillin/streptomycin, 1% L-glutamine and 10% fetal bovine serum. […] Cells were grown at 37° C. in 5% CO2. All the transfections were made using 5:2 Fugene HD Trasfection reagent (μl) to DNA (μg) respectively (Roche). […] Transient transfections were performed using 100 ng of reporter vector pGL4.29[luc2P/CRE/Hygro] […] The pGEM vector was added to normalize the amounts of DNA transfected in each assay (2 μg). […] The cells were then lysed by adding 75 μl of Dual-Glo Luciferase Reagent (Promega) to 75 μl of medium containing cells/well. Renilla luciferase activity was measured by adding volume:volume of Dual-Glo Stop & Glo reagent and original culture medium. Luciferase activities were expressed as ratio between luciferase unit and renilla luciferase unit. Each data point is the average of triplicate assays. Each experiment was repeated at least three times.
After subtracting the average value of the basal (vehicle-treated) condition, values were applied to EC50 and/or efficacy determinations. Calculation of average EC50 and comparison of the EC50 between different compounds were done after transformation to logarithms.

hTGR5 [5] = target: T4, hTGR5; test: FRET-cAMP on TGR5 overexpressing Hek293 cells; assay type: cell-based; set-up: Human intestinal cell lines (NCI-H716) were plated in 96-well plates; endogenous in cells
bovine serum albumin = bovine serum albumin (Bos taurus, UniProt P02769); test: Albumin binding by equilibrium dialysis; assay type: in vitro ADME; set-up: 5% bovine serum albumin-saline solution (pH 7.2); from tissue; host or cells: bovine serum (by the name of the product); conditions: 100 μM BA in 5% bovine serum albumin-saline, pH 7.2
Sequence of bovine serum albumin (P02769 25-607): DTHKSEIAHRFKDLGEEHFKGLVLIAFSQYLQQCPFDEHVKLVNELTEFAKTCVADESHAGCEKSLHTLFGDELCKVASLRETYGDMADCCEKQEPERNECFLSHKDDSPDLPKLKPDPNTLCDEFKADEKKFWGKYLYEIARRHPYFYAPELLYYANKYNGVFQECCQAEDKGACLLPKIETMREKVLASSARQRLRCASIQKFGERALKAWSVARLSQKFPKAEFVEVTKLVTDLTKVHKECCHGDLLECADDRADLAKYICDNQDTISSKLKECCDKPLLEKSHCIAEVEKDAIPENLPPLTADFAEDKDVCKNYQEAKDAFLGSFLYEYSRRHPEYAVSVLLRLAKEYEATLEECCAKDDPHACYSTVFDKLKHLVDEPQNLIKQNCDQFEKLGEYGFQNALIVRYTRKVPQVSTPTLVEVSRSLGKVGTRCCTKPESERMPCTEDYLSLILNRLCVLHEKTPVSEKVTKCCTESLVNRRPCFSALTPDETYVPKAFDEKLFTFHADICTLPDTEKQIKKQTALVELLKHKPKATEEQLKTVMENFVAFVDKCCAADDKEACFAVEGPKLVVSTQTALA
Protocol: The extent of albumin binding was evaluated by equilibrium dialysis at a fixed BA-albumin ratio. Each BA was dissolved at a concentration of 100 μM in 5% bovine serum albumin-saline solution (pH 7.2) and left to stand for 24 h at 25° C. Two milliliters of this solution was dialyzed in cellulose sacs having a molecular weight cut-off of 12,000-14,000 Dalton against 25 ml of saline solution. The system was equilibrated by gently shaking for 72 h at 25° C. BA concentrations of the dialyzed solution (corresponding to the free unbound fraction) and of the starting solution were determined with HPLC-ESI-MS/MS in the same conditions of the previous analysis.
The percentage of albumin binding was calculated from the initial BA concentration and from the unbound concentration in the dialyzed fraction.

[6] = duodenal infusion 1 μmol/kg/min 1 h, 90 min

CC[C@H]1[C@@H](O)[C@@H]2[C@H](CC[C@]3(C)[C@@H]([C@H](C)CCC(=O)O)[C@@H](O)C[C@@H]23)[C@@]2(C)CC[C@@H](O)C[C@@H]12 [Compound 10, 3α,7α,16β-trihydroxy-6α-ethyl-5β-cholan-24-oic acid sodium salt]
CAR Activation EC50 (CAR): No activity
VDR Activation EC50 (VDR): No activity
Detergency (CMC and surface tension lowering capacity) ([1]; NaCl […]): moderate detergent
CMC […] Na+ ([1]; […] NaCl water solution): 5.9 mM
STCMC: Surface Tension at CMC ([1]; […] NaCl water solution): 52.4 Dyne/cm
PPARδ Activation EC50 (PPARδ): No activity
LogPA-: 1-octanol-water partition coefficient [2]: 1.6
Metabolism, species in bile after id administration ([3]; bile fistula rat, mass spectrometry): recovered as such and mainly metabolised to form the taurine conjugates
Intestinal absorption ([3]; bile fistula rat, listed as compound 10, sodium salt): poor intestinal absorption
Intestinal absorption ([3]; bile fistula rat, sodium salt): efficient
Conc. in bile [3, 6]: 10 µM
Secretion (biliary) [3, 6]: 0.0004 µmol/kg/min
Choleretic effect (bile flow) ([3]; duodenal infusion 1 μmol/kg/min, 1 hour, bile fistula rat): not choleretic
Conc. in bile ([3]; duodenal infusion, 120 min): 70 µM
Conc. in bile ([3]; duodenal infusion, 150 min): 390 µM
Conc. in bile ([3]; duodenal infusion, 180 min): 140 µM
Conc. in bile ([3]; duodenal infusion, 210 min): 90 µM
Conc. in bile ([3]; duodenal infusion, 240 min): 30 µM
Conc. in bile ([3]; duodenal infusion, 270 min): 20 µM
Conc. in bile ([3]; duodenal infusion, 300 min): 20 µM
Secretion (biliary) ([3]; duodenal infusion, 120 min): 0.003 µmol/kg/min
Secretion (biliary) ([3]; duodenal infusion, 150 min): 0.019 µmol/kg/min
Secretion (biliary) ([3]; duodenal infusion, 180 min): 0.003 µmol/kg/min
Secretion (biliary) ([3]; duodenal infusion, 210 min): 0.004 µmol/kg/min
Secretion (biliary) ([3]; duodenal infusion, 240 min): 0.001 µmol/kg/min
Secretion (biliary) ([3]; duodenal infusion, 270 min): 0.001 µmol/kg/min
Secretion (biliary) ([3]; duodenal infusion, 300 min): 0.001 µmol/kg/min
EC50 (hTGR5 [4]): 40 nM
EC50 (hTGR5 [5]): 200 nM
Albumin Binding (bovine serum albumin): 83%
